Legend:
Assay type in all cases: biochemical
[1] = molecular target: ProfilerPro Kinase Selectivity Assay Kit kinases (Homo sapiens, UniProt P06239); conditions: LCK; 1 μM compound concentration
[2] = molecular target: ProfilerPro Kinase Selectivity Assay Kit kinases (Homo sapiens, UniProt O75116); conditions: ROCK2; 1 μM compound concentration
[3] = molecular target: ProfilerPro Kinase Selectivity Assay Kit kinases (Homo sapiens, UniProt Q8IW41); conditions: PRAK; 1 μM compound concentration
[4] = molecular target: ProfilerPro Kinase Selectivity Assay Kit kinases (Homo sapiens, UniProt P49137); conditions: MAPKAPK2; 1 μM compound concentration
[5] = molecular target: ProfilerPro Kinase Selectivity Assay Kit kinases (Homo sapiens, UniProt P35968); conditions: KDR; 1 μM compound concentration
ProfilerPro Kinase Selectivity Assay Kit kinases (Homo sapiens, UniProt P35968), sequence (P35968 20-1356 limits assumed): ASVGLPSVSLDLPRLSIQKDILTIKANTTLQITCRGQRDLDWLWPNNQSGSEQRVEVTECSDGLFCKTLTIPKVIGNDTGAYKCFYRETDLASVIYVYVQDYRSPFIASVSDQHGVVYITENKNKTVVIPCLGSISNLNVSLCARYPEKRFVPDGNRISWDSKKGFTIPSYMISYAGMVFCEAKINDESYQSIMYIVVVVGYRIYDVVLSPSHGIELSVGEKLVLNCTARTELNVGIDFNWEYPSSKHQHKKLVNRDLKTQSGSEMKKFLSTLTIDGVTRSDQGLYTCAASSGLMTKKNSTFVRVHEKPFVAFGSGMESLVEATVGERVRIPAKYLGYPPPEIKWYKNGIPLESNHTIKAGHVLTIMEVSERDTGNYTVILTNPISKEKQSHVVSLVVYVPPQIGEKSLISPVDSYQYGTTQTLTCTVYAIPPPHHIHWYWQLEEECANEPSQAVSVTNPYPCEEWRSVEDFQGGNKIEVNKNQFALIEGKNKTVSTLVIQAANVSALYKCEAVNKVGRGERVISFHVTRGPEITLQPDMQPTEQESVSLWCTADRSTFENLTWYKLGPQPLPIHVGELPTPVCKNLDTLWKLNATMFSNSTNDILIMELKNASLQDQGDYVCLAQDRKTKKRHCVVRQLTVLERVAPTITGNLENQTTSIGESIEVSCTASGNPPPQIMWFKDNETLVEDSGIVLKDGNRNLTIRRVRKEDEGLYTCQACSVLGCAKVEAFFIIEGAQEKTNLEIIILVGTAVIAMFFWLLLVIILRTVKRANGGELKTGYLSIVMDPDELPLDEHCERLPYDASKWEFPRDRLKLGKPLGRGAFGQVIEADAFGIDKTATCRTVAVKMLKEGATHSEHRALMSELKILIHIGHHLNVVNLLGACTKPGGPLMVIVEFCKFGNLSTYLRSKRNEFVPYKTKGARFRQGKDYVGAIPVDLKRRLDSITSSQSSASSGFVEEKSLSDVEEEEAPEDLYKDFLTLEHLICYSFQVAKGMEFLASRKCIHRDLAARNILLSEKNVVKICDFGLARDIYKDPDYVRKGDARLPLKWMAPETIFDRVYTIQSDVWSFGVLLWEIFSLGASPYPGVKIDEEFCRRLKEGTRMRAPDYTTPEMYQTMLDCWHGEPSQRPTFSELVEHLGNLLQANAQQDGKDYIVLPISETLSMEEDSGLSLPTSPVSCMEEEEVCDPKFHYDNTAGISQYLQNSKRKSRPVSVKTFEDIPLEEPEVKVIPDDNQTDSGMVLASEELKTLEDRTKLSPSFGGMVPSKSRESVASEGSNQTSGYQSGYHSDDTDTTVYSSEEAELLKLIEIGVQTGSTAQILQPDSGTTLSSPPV

[6] = molecular target: ProfilerPro Kinase Selectivity Assay Kit kinases (Homo sapiens, UniProt Q16539); conditions: p38 alpha; 1 μM compound concentration
ProfilerPro Kinase Selectivity Assay Kit kinases (Homo sapiens, UniProt Q16539), sequence (Q16539 2-360 limits assumed): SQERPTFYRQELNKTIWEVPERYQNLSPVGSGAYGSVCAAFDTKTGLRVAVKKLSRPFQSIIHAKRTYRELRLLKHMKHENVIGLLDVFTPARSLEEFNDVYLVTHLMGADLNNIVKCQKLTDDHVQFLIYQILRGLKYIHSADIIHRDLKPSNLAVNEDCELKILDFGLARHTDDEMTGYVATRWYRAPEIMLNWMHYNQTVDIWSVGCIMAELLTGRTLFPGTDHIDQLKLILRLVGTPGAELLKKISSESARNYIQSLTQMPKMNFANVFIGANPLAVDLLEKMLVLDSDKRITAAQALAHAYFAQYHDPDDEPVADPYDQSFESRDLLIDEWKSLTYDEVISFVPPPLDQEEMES

[7] = molecular target: ProfilerPro Kinase Selectivity Assay Kit kinases (Homo sapiens, UniProt Q16566); conditions: CAMK4; 1 μM compound concentration
[8] = molecular target: ProfilerPro Kinase Selectivity Assay Kit kinases (Homo sapiens, UniProt Q13627); conditions: DYRK1a; 1 μM compound concentration
[9] = molecular target: ProfilerPro Kinase Selectivity Assay Kit kinases (Homo sapiens, UniProt P24941); conditions: CDK2; 1 μM compound concentration
[10] = molecular target: ProfilerPro Kinase Selectivity Assay Kit kinases (Homo sapiens, UniProt Q9P1W9); conditions: PIM2; 1 μM compound concentration
[11] = molecular target: ProfilerPro Kinase Selectivity Assay Kit kinases (Homo sapiens, UniProt P48730); conditions: CK1 delta; 1 μM compound concentration
[12] = molecular target: ProfilerPro Kinase Selectivity Assay Kit kinases (Homo sapiens, UniProt P28482); conditions: ERK2; 1 μM compound concentration
ProfilerPro Kinase Selectivity Assay Kit kinases (Homo sapiens, UniProt P28482), sequence (P28482 2-360 limits assumed): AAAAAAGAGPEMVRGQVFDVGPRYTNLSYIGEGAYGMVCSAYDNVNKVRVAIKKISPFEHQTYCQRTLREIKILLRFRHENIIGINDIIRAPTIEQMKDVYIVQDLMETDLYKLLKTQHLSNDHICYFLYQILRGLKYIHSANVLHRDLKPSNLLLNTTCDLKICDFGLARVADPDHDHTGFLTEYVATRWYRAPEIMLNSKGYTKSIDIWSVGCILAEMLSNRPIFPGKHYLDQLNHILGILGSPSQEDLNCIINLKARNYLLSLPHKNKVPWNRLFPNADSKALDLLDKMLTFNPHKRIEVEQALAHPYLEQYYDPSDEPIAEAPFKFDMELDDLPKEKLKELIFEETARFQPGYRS

[13] = molecular target: ProfilerPro Kinase Selectivity Assay Kit kinases (Homo sapiens, UniProt P08581); conditions: cMET; 1 μM compound concentration
[14] = molecular target: ProfilerPro Kinase Selectivity Assay Kit kinases (Homo sapiens, UniProt P12931); conditions: SRC; 1 μM compound concentration
[15] = molecular target: ProfilerPro Kinase Selectivity Assay Kit kinases (Homo sapiens, UniProt P31749); conditions: AKT1; 1 μM compound concentration
[16] = molecular target: ProfilerPro Kinase Selectivity Assay Kit kinases (Homo sapiens, UniProt P07948); conditions: LYN; 1 μM compound concentration
ProfilerPro Kinase Selectivity Assay Kit kinases (Homo sapiens, UniProt P07948), sequence (P07948 2-512 limits assumed): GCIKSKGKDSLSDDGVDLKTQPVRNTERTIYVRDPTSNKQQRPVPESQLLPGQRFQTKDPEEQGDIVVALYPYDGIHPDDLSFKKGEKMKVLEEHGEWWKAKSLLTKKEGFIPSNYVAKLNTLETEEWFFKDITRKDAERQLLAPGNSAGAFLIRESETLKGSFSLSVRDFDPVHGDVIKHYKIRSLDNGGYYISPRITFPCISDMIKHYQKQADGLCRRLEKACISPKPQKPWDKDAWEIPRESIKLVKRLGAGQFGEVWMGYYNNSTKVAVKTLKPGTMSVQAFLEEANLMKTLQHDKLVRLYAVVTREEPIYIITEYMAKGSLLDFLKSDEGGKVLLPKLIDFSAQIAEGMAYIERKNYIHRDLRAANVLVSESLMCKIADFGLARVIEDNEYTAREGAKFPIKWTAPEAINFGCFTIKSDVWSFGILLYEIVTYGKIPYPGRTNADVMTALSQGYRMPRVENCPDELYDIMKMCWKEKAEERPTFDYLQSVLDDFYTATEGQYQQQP

[17] = molecular target: ProfilerPro Kinase Selectivity Assay Kit kinases (Homo sapiens, UniProt P04049); conditions: cRAF; 1 μM compound concentration
[18] = molecular target: ProfilerPro Kinase Selectivity Assay Kit kinases (Homo sapiens, UniProt P00519); conditions: ABL; 1 μM compound concentration
[19] = molecular target: ProfilerPro Kinase Selectivity Assay Kit kinases (Homo sapiens, UniProt P36888); conditions: FLT3; 1 μM compound concentration
ProfilerPro Kinase Selectivity Assay Kit kinases (Homo sapiens, UniProt P36888), sequence (P36888 27-993 limits assumed): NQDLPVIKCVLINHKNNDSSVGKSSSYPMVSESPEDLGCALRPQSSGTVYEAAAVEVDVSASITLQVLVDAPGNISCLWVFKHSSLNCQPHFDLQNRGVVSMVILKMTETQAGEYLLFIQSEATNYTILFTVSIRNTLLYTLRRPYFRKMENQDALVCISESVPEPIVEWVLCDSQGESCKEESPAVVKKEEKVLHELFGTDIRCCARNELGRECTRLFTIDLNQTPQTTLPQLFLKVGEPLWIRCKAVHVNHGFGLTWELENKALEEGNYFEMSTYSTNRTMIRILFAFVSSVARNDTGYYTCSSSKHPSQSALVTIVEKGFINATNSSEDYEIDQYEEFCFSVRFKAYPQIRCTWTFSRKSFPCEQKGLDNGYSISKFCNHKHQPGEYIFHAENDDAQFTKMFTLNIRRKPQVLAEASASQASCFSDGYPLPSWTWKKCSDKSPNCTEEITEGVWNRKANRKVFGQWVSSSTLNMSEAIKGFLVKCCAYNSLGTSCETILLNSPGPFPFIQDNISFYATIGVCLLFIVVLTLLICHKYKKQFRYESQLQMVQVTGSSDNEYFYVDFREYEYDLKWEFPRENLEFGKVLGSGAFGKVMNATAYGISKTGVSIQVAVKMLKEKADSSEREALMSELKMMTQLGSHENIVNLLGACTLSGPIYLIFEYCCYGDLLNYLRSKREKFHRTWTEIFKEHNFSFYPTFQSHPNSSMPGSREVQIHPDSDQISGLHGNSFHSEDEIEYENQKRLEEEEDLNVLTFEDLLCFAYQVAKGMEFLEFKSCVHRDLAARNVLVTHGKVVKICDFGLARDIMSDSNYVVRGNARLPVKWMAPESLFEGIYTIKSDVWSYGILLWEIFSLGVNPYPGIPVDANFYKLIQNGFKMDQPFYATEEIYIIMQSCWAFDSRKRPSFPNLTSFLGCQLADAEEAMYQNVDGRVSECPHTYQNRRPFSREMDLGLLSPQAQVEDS

[20] = molecular target: ProfilerPro Kinase Selectivity Assay Kit kinases (Homo sapiens, UniProt Q15418); conditions: RSK1; 1 μM compound concentration
[21] = molecular target: ProfilerPro Kinase Selectivity Assay Kit kinases (Homo sapiens, UniProt O75582); conditions: MSK1; 1 μM compound concentration
[22] = molecular target: ProfilerPro Kinase Selectivity Assay Kit kinases (Homo sapiens, UniProt Q13976); conditions: PKGa2; 1 μM compound concentration
ProfilerPro Kinase Selectivity Assay Kit kinases (Homo sapiens, UniProt Q13976), sequence (Q13976 2-671 limits assumed): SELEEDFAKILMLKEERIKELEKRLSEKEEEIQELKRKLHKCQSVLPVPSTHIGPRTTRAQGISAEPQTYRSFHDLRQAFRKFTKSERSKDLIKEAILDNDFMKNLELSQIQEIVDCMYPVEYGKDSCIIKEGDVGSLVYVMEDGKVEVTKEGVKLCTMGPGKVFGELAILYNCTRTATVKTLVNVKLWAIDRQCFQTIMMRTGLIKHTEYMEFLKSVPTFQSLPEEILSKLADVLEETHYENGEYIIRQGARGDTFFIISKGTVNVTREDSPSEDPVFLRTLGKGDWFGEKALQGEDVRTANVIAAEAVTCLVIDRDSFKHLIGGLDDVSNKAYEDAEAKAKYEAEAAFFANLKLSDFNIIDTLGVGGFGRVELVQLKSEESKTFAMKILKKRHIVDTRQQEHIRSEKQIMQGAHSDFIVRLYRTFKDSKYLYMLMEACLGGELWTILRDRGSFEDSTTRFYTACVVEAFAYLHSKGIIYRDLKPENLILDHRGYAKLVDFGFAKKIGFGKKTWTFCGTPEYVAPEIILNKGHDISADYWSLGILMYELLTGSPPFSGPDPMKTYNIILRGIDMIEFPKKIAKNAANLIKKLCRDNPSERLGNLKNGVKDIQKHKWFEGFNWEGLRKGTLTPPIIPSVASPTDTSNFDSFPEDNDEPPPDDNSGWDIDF

[23] = molecular target: ProfilerPro Kinase Selectivity Assay Kit kinases (Homo sapiens, UniProt P06241); conditions: FYN; 1 μM compound concentration
[24] = molecular target: ProfilerPro Kinase Selectivity Assay Kit kinases (Homo sapiens, UniProt Q13188); conditions: MST2; 1 μM compound concentration
[25] = molecular target: ProfilerPro Kinase Selectivity Assay Kit kinases (Homo sapiens, UniProt P31751); conditions: AKT2; 1 μM compound concentration
[26] = system: ProfilerPro Kinase Selectivity Assay Kit kinases; conditions: 1 μM compound concentration
[27] = molecular target: ProfilerPro Kinase Selectivity Assay Kit kinases (Homo sapiens, UniProt P23443); conditions: p70S6K; 1 μM compound concentration
[28] = molecular target: ProfilerPro Kinase Selectivity Assay Kit kinases (Homo sapiens, UniProt P11362); conditions: FGFR1; 1 μM compound concentration
ProfilerPro Kinase Selectivity Assay Kit kinases (Homo sapiens, UniProt P11362), sequence (P11362 22-822 limits assumed): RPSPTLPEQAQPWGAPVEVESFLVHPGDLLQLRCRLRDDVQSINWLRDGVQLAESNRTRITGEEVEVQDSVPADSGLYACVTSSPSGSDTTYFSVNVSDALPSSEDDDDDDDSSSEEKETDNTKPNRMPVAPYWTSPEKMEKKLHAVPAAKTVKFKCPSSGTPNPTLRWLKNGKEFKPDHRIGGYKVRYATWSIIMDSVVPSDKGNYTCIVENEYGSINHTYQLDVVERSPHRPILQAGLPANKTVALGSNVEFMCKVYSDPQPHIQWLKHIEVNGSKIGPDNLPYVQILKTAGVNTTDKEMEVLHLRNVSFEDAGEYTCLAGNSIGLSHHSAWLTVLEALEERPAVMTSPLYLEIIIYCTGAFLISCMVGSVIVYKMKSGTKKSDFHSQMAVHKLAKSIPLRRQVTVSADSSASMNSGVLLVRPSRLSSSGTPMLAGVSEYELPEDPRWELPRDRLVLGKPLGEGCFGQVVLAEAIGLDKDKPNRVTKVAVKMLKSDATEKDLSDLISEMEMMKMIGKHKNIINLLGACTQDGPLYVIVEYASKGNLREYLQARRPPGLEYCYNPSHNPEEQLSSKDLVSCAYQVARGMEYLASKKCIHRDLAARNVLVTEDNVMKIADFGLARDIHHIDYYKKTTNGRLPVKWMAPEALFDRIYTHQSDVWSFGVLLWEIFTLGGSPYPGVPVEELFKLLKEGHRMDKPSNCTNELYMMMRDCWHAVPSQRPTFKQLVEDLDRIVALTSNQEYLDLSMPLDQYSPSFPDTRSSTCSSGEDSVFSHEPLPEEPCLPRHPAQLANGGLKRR

[29] = molecular target: ProfilerPro Kinase Selectivity Assay Kit kinases (Homo sapiens, UniProt Q9P0L2); conditions: MARK1; 1 μM compound concentration
[30] = molecular target: ProfilerPro Kinase Selectivity Assay Kit kinases (Homo sapiens, UniProt P49841); conditions: GSK3 beta; 1 μM compound concentration
[31] = molecular target: ProfilerPro Kinase Selectivity Assay Kit kinases (Homo sapiens, UniProt P06213); conditions: INSR; 1 μM compound concentration

Row | POC (Percent of control) LCK [1] | POC (Percent of control) ROCK2 [2] | POC (Percent of control) PRAK [3] | POC (Percent of control) MAPKAPK2 [4] | POC (Percent of control) KDR [5] | POC (Percent of control) p38 alpha [6] | POC (Percent of control) CAMK4 [7] | POC (Percent of control) DYRK1a [8] | POC (Percent of control) CDK2 [9] | POC (Percent of control) PIM2 [10] | POC (Percent of control) CK1 delta [11] | POC (Percent of control) ERK2 [12] | POC (Percent of control) cMET [13] | POC (Percent of control) SRC [14] | POC (Percent of control) AKT1 [15] | POC (Percent of control) LYN [16] | POC (Percent of control) cRAF [17] | POC (Percent of control) ABL [18] | POC (Percent of control) FLT3 [19] | POC (Percent of control) RSK1 [20] | SMILES | other results
1 | 96 POC | 95 POC | 100 POC | 99 POC | 90 POC | 100 POC | 93 POC | 91 POC | 95 POC | 94 POC | 55 POC | 97 POC | 100 POC | 93 POC | 102 POC | 95 POC | 100 POC | 94 POC | 92 POC | 97 POC | Cc1nc(-c2cccnc2Nc2cccc3[nH]ncc23)c2nc[nH]c2n1 [Example 57, N-(3-(2-methyl-9H-purin-6-yl)pyridin-2-yl)-1H-indazol-4-amine] | POC (Percent of control) MSK1 [21]: 101 POC; POC (Percent of control) PKGa2 [22]: 98 POC; POC (Percent of control) FYN [23]: 103 POC; POC (Percent of control) MST2 [24]: 95 POC; POC (Percent of control) AKT2 [25]: 98 POC; POC (Percent of control) AMPK [26]: 92 POC; POC (Percent of control) CAMK2 [26]: 109 POC; POC (Percent of control) PKC beta2 [26]: 97 POC; POC (Percent of control) TAK1 [26]: 97 POC; POC (Percent of control) p70S6K [27]: 94 POC; POC (Percent of control) FGFR1 [28]: 95 POC; POC (Percent of control) MARK1 [29]: 99 POC; POC (Percent of control) GSK3 beta [30]: 101 POC; POC (Percent of control) INSR [31]: 94 POC
2 | 61 POC | 93 POC | 103 POC | 101 POC | 86 POC | 91 POC | 91 POC | 82 POC | 93 POC | 104 POC | 69 POC | 104 POC | 102 POC | 79 POC | 50 POC | 55 POC | 56 POC | 81 POC | 89 POC | 105 POC | Cc1cnc(Nc2cccc3[nH]ncc23)c(-c2nc(C)nc(N)n2)c1 [Example 47, N-(3-(4-Amino-6-Methyl-1,3,5-Triazin-2-yl)-5-Methylpyridine-2-yl)-1H-Indazol-4-Amine] | POC (Percent of control) MSK1 [21]: 76 POC; POC (Percent of control) PKGa2 [22]: 80 POC; POC (Percent of control) FYN [23]: 87 POC; POC (Percent of control) MST2 [24]: 101 POC; POC (Percent of control) AKT2 [25]: 74 POC; POC (Percent of control) AMPK [26]: 87 POC; POC (Percent of control) CAMK2 [26]: 126 POC; POC (Percent of control) PKC beta2 [26]: 100 POC; POC (Percent of control) TAK1 [26]: 106 POC; POC (Percent of control) p70S6K [27]: 60 POC; POC (Percent of control) FGFR1 [28]: 94 POC; POC (Percent of control) MARK1 [29]: 107 POC; POC (Percent of control) GSK3 beta [30]: 97 POC; POC (Percent of control) INSR [31]: 99 POC
3 | 96 POC | 94 POC | 111 POC | 98 POC | 90 POC | 96 POC | 96 POC | 96 POC | 97 POC | 99 POC | 91 POC | 116 POC | 104 POC | 96 POC | 93 POC | 96 POC | 91 POC | 97 POC | 99 POC | 100 POC | Cc1cnc(Nc2cccc3[nH]ccc23)c(-c2nc(C)nc(N)n2)c1 [Example 46, N-(3-(4-Amino-6-Methyl-1,3,5-Triazin-2-yl)-5-Methylpyridin-2-yl)-1H-Indol-4-Amine] | POC (Percent of control) MSK1 [21]: 103 POC; POC (Percent of control) PKGa2 [22]: 95 POC; POC (Percent of control) FYN [23]: 101 POC; POC (Percent of control) MST2 [24]: 96 POC; POC (Percent of control) AKT2 [25]: 110 POC; POC (Percent of control) AMPK [26]: 91 POC; POC (Percent of control) CAMK2 [26]: 105 POC; POC (Percent of control) PKC beta2 [26]: 96 POC; POC (Percent of control) TAK1 [26]: 98 POC; POC (Percent of control) p70S6K [27]: 90 POC; POC (Percent of control) FGFR1 [28]: 98 POC; POC (Percent of control) MARK1 [29]: 102 POC; POC (Percent of control) GSK3 beta [30]: 95 POC; POC (Percent of control) INSR [31]: 98 POC
